Measurements: patent publication US8455525B2, “Selective androgen receptor modulators” (Radius Health, Inc., priority 2008, dated 2013)
pIC50: −log10 of the molar value. Like-named read-outs stand apart in the source and are kept apart here.

What was measured:
androgen receptor (AR) = molecular target: T1, androgen receptor (AR) (Rattus norvegicus, UniProt P15207); assay: androgen receptor binding assay (fluorescence polarization, Fluormone AL Green competition)
T1 construct: purchased Invitrogen, Madison, Wis
T1 sequence (P15207 651-902 limits assumed): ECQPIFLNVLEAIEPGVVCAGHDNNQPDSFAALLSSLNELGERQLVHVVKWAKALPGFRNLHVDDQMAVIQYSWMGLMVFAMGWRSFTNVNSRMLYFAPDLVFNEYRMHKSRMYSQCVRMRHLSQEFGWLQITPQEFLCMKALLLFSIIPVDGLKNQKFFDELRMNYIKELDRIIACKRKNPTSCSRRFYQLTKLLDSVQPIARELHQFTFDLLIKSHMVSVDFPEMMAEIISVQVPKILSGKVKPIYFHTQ
Description: The assay was performed as specified by the manufacturer (Invitrogen, Madison, Wis.). Briefly, 1 μl of 10 mM compound was added to 500 μl of AR screening buffer in a 1.5 ml eppendorf tube to make a 2×10^−5M stock. 10-fold serial dilutions of the test compounds were prepared ranging in concentration from 10^−5M to 10^−12M. Each dilution was added in triplicate to a black 384-microtiter plate. The test compounds will be diluted 2-fold in the final reaction. 2×AR-Fluormone™ complex was prepared with 2 nM Flourmone AL Green™ and 30 nM AR. 25 μl of 2× complex was aliquoted to each reaction well, such that the final reaction volume was 50 μl per well. Plate was sealed with a foil cover and incubated in the dark at room temperature for 4 h. Polarization values for each well were measured. The polarization values were plotted against the concentration of the test compound. […] As a control, a competition curve for R1881 (methyltrienolone) was performed for each assay. Curve Fitting was performed using GraphPad Prism® software from GraphPad™ Software Inc. Binding data are reported as a single determination if the experiment was run once only and as the average of experiments if the binding experiment was performed two or more times with that compound.
Where multiple data points have been taken, the value reported is the average of the multiple determinations.

[1] = test system: young, orchidectomized rats; assay: Rat Herschberger assay: organ weights of orchidectomized rats relative to sham; assay type: in vivo, rat (Sprague Dawley); settings: 10 mg/kg (po), once daily for 4 days
Excerpt: The following is a typical procedure of the in vivo evaluation of the selective androgens of this invention. In particular, this assay looks primarily at the ability of the selective androgens of this invention to increase muscle size in an immature, castrated rat. In addition, androgenic effects are looked at primarily by weighing the prostate and seminal vesicles. Selective compounds will show a greater increase in the levator ani relative to the prostate and seminal vesicles when compared to testosterone treated, castrated animals or to intact animals that have not been treated. Immature Sprague Dawley male rats were obtained Charles River Laboratories (Stoneridge, N.Y.). All animals were maintained in a temperature and humidity controlled room with a 12 hr light: 12 hr dark cycle, with ad lib access to food (TD 291615, Teklad, Madison, Wis.) and water. Rats were anesthetized and orchidectomized (GDX) or sham surgery (SHAM) was performed. After a 7-day recovery period, the animals were randomized according to weight and assigned to treatment groups (n=5), SHAM, OVX+ vehicle, OVX+Cpd treated. Testosterone propionate (TP 1 mg/kg in 5% DMSO/95% corn oil) was administered by once daily subcutaneous injections, while the compounds of the invention are dosed in vehicle (typically 20% cyclodextrin or 0.5% carboxymethylcellulose) was administered by once daily oral gavage. The rats were then dosed once daily for 4 days. All animals were euthanized via carbon dioxide inhalation 24 hs after the last dose. The prostate, seminal vesicle and levator ani and bulba cavernous (LABC) tissues were removed, weighed and recorded. Body weights were recorded for each animal at baseline and at sacrifice.
Prostate, seminal vesicle and levator ani bulbus cavernosus (LABC) are all represented as % relative to sham. After sacrifice, organ weights of young, orchidectomized rats treated with compound for 4 days are compared to sham operated animals.

Row | SMILES | pIC50 (androgen receptor (AR)) | other results
1 | Cc1c(N[C@@H](c2nnc(-c3ccccc3)o2)[C@@H](C)O)ccc(C#N)c1Cl [Example 3, 2-chloro-4-((1R,2R)-2-hydroxy-1-(5-phenyl-1,3,4-oxadiazol-2-yl)propylamino)-3-methylbenzonitrile] | 8.22 | LABC (levator ani bulbus cavernosus) weight, % relative to sham [1]: 99%; Prostate weight, % relative to sham [1]: 43%; Seminal vesicle weight, % relative to sham [1]: 37%
2 | Cc1c(N[C@@H](c2nnc(-c3ccccc3)o2)[C@H](C)O)ccc(C#N)c1Cl [Example 1, 2-chloro-4-((1R,2S)-2-hydroxy-1-(5-phenyl-1,3,4-oxadiazol-2-yl)propylamino)-3-methylbenzonitrile] | 8.52 | LABC (levator ani bulbus cavernosus) weight, % relative to sham [1]: 85%; Prostate weight, % relative to sham [1]: 46%; Seminal vesicle weight, % relative to sham [1]: 69%
3 | C[C@@H](O)[C@@H](Nc1ccc(C#N)c2sccc12)c1nnc(-c2ccc(C#N)cc2)o1 [Example 61, 4-((1R,2R)-1-(5-(4-cyanophenyl)-1,3,4-oxadiazol-2-yl)-2-hydroxypropylamino)benzo[b]thiophene-7-carbonitrile] | – | pIC50 (androgen receptor (AR); single determination or average of multiple determinations, read-out: Binding IC50 (AR-Binding Affinity)): 9.00
4 | Cc1c(N[C@@H](c2nnc(-c3cccc(F)c3)o2)[C@H](C)O)ccc(C#N)c1Cl [Example 81, 2-chloro-4-((1R,2S)-1-(5-(3-fluorophenyl)-1,3,4-oxadiazol-2-yl)-2-hydroxypropylamino)-3-methylbenzonitrile] | 8.70 | –
5 | Cc1c(N[C@@H](c2nnc(-c3ccc(O)c(Cl)c3)o2)[C@H](C)O)ccc(C#N)c1Cl [Example 37, 2-Chloro-4-((1R,2S)-1-(5-(3-chloro-4-hydroxyphenyl)-1,3,4-oxadiazol-2-yl)-2-hydroxypropylamino)-3-methylbenzonitrile] | 9.70 | –
6 | Cc1c(N[C@@H](c2nnc(-c3ccc(S(C)(=O)=O)cc3)o2)[C@@H](C)O)ccc(C#N)c1Cl [Example 25, 2-chloro-4-((1R,2R)-2-hydroxy-1-(5-(4-(methylsulfonyl)phenyl)-1,3,4-oxadiazol-2-yl)propylamino)-3-methylbenzonitrile] | 6.59 | –
7 | Cc1c(N[C@@H](c2nnc(-c3ccc(C#N)cc3)o2)[C@H](C)O)ccc(C#N)c1C(F)(F)F [Example 42, 4-((1R,2S)-1-(5-(4-Cyanophenyl)-1,3,4-oxadiazol-2-yl)-2-hydroxypropylamino)-3-methyl-2-(trifluoromethyl)benzonitrile] | 8.05 | –
8 | Cc1c(NC(c2nnc(-c3ccccc3)o2)C(O)c2ccccc2)ccc(C#N)c1Cl (racemic) [Example 38, DL-Threo-2-chloro-4-(2-hydroxy-2-phenyl-1-(5-phenyl-1,3,4-oxadiazol-2-yl)ethylamino)-3-methylbenzonitrile] | 7.22 | –
9 | Cc1c(N[C@@H](c2nnc(-c3ccc(S(C)(=O)=O)cc3)o2)[C@H](C)O)ccc(C#N)c1Cl [Example 24, 2-chloro-4-((1R,2S)-2-hydroxy-1-(5-(4-(methylsulfonyl)phenyl)-1,3,4-oxadiazol-2-yl)propylamino)-3-methylbenzonitrile] | 6.70 | –
10 | Cc1c(N[C@@H](c2nnc(-c3ccc(CO)cc3)o2)[C@H](C)O)ccc(C#N)c1Cl [Example 49, 2-Chloro-4-((1R,2S)-2-hydroxy-1-(5-(4-(hydroxymethyl)phenyl)-1,3,4-oxadiazol-2-yl)propylamino)-3-methylbenzonitrile] | 8.70 | –
11 | C[C@H](O)[C@@H](Nc1ccc(C#N)c(C(F)(F)F)c1)c1nnc(-c2ccc(C#N)cc2)o1 [Example 45, 4-((1R,2S)-1-(5-(4-Cyanophenyl)-1,3,4-oxadiazol-2-yl)-2-hydroxypropylamino)-2-(trifluoromethyl)benzonitrile] | 6.33 | –
12 | Cc1c(N[C@@H](c2ncc(-c3ccccc3)o2)[C@H](C)O)ccc(C#N)c1Cl [Example 36, 2-Chloro-4-((1R,2S)-2-hydroxy-1-(5-phenyloxazol-2-yl)propylamino)-3-methylbenzonitrile] | 7.92 | –
13 | CC(=O)Nc1ccc(-c2nnc([C@H](Nc3ccc(C#N)c(Cl)c3C)[C@H](C)O)o2)cc1 [Example 78, N-(4-(5-((1R,2S)-1-(3-Chloro-4-cyano-2-methylphenylamino)-2-hydroxypropyl)-1,3,4-oxadiazol-2-yl)phenyl)acetamide] | 9.00 | –
